In patent US20260297095A1, “NOVEL PYRROLOTRIAZINE DERIVATIVE AND USE THEREOF” (Pelemed Co., Ltd., priority 2024, published 2026):

What was measured:
YES1 kinase = YES1 kinase (Homo sapiens, UniProt P07947); experiment: YES1 kinase inhibition, ADP Glo assay (Promega); assay type: biochemical; details: for YES1 kinase inhibition at 1 nM (in words) / inhibition at 0.001 µM: compound 1 nM; for inhibition at 0.001 µM: read-out: YES1 enzyme, % inhibition, 1 nM; for inhibition at 0.01 µM: compound 10 nM, read-out: YES1 enzyme, % inhibition, 10 nM; for inhibition at 0.1 µM: compound 100 nM, read-out: YES1 enzyme, % inhibition, 100 nM; for IC50: class symbols, read-out: YES1 enzyme, IC50
Sequence of YES1 kinase (P07947 whole entry): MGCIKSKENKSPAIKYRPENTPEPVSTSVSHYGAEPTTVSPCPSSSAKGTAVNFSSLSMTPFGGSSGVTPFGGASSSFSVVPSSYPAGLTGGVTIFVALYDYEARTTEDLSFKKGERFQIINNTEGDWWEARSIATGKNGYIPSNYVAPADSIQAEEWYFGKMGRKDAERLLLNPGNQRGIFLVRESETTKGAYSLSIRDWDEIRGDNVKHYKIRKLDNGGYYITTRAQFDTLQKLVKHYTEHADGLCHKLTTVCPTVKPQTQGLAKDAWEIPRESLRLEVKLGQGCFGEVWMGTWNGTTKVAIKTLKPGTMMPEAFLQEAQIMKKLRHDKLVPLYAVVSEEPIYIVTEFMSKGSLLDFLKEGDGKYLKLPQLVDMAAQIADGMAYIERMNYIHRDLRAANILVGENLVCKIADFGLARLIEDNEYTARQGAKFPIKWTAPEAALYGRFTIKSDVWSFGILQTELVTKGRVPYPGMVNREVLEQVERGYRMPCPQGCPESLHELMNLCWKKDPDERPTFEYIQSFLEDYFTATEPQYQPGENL
Method in brief: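 ADP-Glo luminescence after a 40 min room-temperature reaction of YES1 with ATP and substrate (buffer with MnCl2 and DTT; 10 min compound preincubation) was used as readout. Percent inhibition at 1, 10 and 100 nM compound was calculated relative to negative control after background subtraction, and IC50 values derived.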

[1] = tested on: KYSE-70 esophageal cancer cell line; experiment: Cell growth inhibition of KYSE-70 (Sulforhodamine B); assay type: cell-based; details: Homo sapiens; KYSE-70, 72 hours; read-out: KYSE70 GI50
Method in brief: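 KYSE-70 cells (YES1-amplified) in RPMI-1640 with 10% FBS were seeded 24 h before treatment with compound at 0.0046–10 µM final. After 72 h, cells were TCA-fixed and stained with sulforhodamine B, with absorbance read at 510 nm. GI50 was derived with a time-zero plate set to 0% and the vehicle control to 100%, in duplicate tests.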

| inhibition at 0.001 µM (YES1 kinase) | inhibition at 0.01 µM (YES1 kinase) | GI50 [1] | inhibition at 0.1 µM (YES1 kinase) | IC50 (YES1 kinase) | SMILES | YES1 kinase inhibition at 1 nM (in words) (YES1 kinase) |
| --- | --- | --- | --- | --- | --- | --- |
| 12% | 47% | 100 to 1000 nM |  |  | COc1cc(-c2cc(N3CCC(O)CC3)n3ncnc(N)c23)ccc1NC(=O)OC(C)(C)C [Example 90, tert-butyl (4-(4-amino-7-(4-hydroxypiperidin-1-yl)pyrrolo[2,1-f][1,2,4]triazin-5-yl)-2-methoxyphenyl)carbamate] | could be inhibited even at a low concentration of 1 nM |
|  | 36% | 100 to 1000 nM | 70% |  | COc1cc(-c2cc(N3CCC(CN(C)C)C3)n3ncnc(N)c23)ccc1NC(=O)OC(C)(C)C (centres unmarked) [Example 20, tert-butyl (4-(4-amino-7-(3-((dimethylamino)methyl)pyrrolidin-1-yl)pyrrolo[2,1-f][1,2,4]triazin-5-yl)-2-methoxyphenyl)carbamate] |  |
|  | 67% | ≤ 100 nM | 88% |  | COc1cc(-c2cc(N3CCC(N(C)C)CC3)n3ncnc(N)c23)ccc1NC(=O)OC(C)(C)C [Example 15, tert-butyl (4-(4-amino-7-(4-(dimethylamino)piperidin-1-yl)pyrrolo[2,1-f][1,2,4]triazin-5-yl)-2-methoxyphenyl)carbamate] |  |
|  | 61% | ≤ 100 nM | 80% | ≤ 100 nM | CN[C@@H]1CCN(c2cc(-c3ccc(NC(=O)OC(C)(C)C)c(OC)c3)c3c(N)ncnn23)C[C@@H]1F [Example 87, tert-butyl (4-(4-amino-7-((3S,4R)-3-fluoro-4-(methylamino)piperidin-1-yl)pyrrolo[2,1-f][1,2,4]triazin-5-yl)-2-methoxyphenyl)carbamate] |  |
|  | 63% | ≤ 100 nM | 90% |  | COc1cc(-c2cc(N3C[C@@H]4[C@H](C3)[C@H]4N(C)C)n3ncnc(N)c23)ccc1NC(=O)OC(C)(C)C [Example 42, tert-butyl (4-(4-amino-7-((1R,5S,6s)-6-(dimethylamino)-3-azabicyclo[3.1.0]hexan-3-yl)pyrrolo[2,1-f][1,2,4]triazin-5-yl)-2-methoxyphenyl)carbamate] |  |
|  | 70% | ≤ 100 nM | 88% |  | COc1cc(-c2cc(CCN3CCC(N)CC3)n3ncnc(N)c23)ccc1NC(=O)OC(C)(C)C [Example 100, tert-butyl (4-(4-amino-7-(2-(4-aminopiperidin-1-yl)ethyl)pyrrolo[2,1-f][1,2,4]triazin-5-yl)-2-methoxyphenyl)carbamate] |  |
| 33% | 45% | 100 to 1000 nM |  |  | COc1cc(-c2cc(N3CCC(CN)C(C)(C)C3)n3ncnc(N)c23)ccc1NC(=O)OC(C)(C)C (centres unmarked) [Example 104, tert-butyl (4-(4-amino-7-(4-(aminomethyl)-3,3-dimethylpiperidin-1-yl)pyrrolo[2,1-f][1,2,4]triazin-5-yl)-2-methoxyphenyl)carbamate] | could be inhibited even at a low concentration of 1 nM |
| 37% | 43% | ≤ 100 nM |  |  | COc1cc(-c2cc(N3CCC(C(C)(C)N)CC3)n3ncnc(N)c23)ccc1NC(=O)OC(C)(C)C [Example 106, tert-butyl (4-(4-amino-7-(4-(2-aminopropan-2-yl)piperidin-1-yl)pyrrolo[2,1-f][1,2,4]triazin-5-yl)-2-methoxyphenyl)carbamate] |  |
|  | 69% | ≤ 100 nM | 86% |  | COc1cc(-c2cc(N3CCC(CN(C)C)CC3)n3ncnc(N)c23)ccc1NC(=O)OC(C)(C)C [Example 19, tert-butyl (4-(4-amino-7-(4-((dimethylamino)methyl)piperidin-1-yl)pyrrolo[2,1-f][1,2,4]triazin-5-yl)-2-methoxyphenyl)carbamate] |  |
| 43% | 66% | ≤ 100 nM |  | ≤ 100 nM | COc1cc(-c2c(C)c(N3CCC(N)CC3)n3ncnc(N)c23)ccc1NC(=O)OC(C)(C)C [Example 74, tert-butyl (4-(4-amino-7-(4-aminopiperidin-1-yl)-6-methylpyrrolo[2,1-f][1,2,4]triazin-5-yl)-2-methoxyphenyl)carbamate] | could be inhibited even at a low concentration of 1 nM |
|  | 73% | ≤ 100 nM | 94% |  | COc1cc(-c2cc(N3CC[C@@H](N(C)C)[C@@H](F)C3)n3ncnc(N)c23)ccc1NC(=O)OC(C)(C)C [Example 30, tert-butyl (4-(4-amino-7-((3S,4R)-4-(dimethylamino)-3-fluoropiperidin-1-yl)pyrrolo[2,1-f][1,2,4]triazin-5-yl)-2-methoxyphenyl)carbamate] |  |
|  | 80% | ≤ 100 nM | 92% | ≤ 100 nM | COc1cc(-c2cc(N3CCC(C)(N)CC3)n3ncnc(N)c23)ccc1NC(=O)OC(C)(C)C [Example 45, tert-butyl (4-(4-amino-7-(4-amino-4-methylpiperidin-1-yl)pyrrolo[2,1-f][1,2,4]triazin-5-yl)-2-methoxyphenyl)carbamate] |  |
|  | 8% | 1000 to 10000 nM | 38% |  | COc1cc(-c2cc(N3CC[C@@H](N(C)C)C3)n3ncnc(N)c23)ccc1NC(=O)OC(C)(C)C [Example 10, tert-butyl (R)-(4-(4-amino-7-(3-(dimethylamino)pyrrolidin-1-yl)pyrrolo[2,1-f][1,2,4]triazin-5-yl)-2-methoxyphenyl)carbamate] |  |
|  | 40% | 100 to 1000 nM | 78% |  | COc1cc(-c2cc(NC3CCNCC3)n3ncnc(N)c23)ccc1NC(=O)OC(C)(C)C [Example 120, tert-butyl (4-(4-amino-7-(piperidin-4-ylamino)pyrrolo[2,1-f][1,2,4]triazin-5-yl)-2-methoxyphenyl)carbamate] |  |
|  | 21% | 100 to 1000 nM | 59% |  | COc1cc(-c2cc(N3CC(C)C(N)C(C)C3)n3ncnc(N)c23)ccc1NC(=O)OC(C)(C)C (centres unmarked) [Example 91, tert-butyl (4-(4-amino-7-(4-amino-3,5-dimethylpiperidin-1-yl)pyrrolo[2,1-f][1,2,4]triazin-5-yl)-2-methoxyphenyl)carbamate] |  |
|  | 50% | 100 to 1000 nM | 77% |  | COc1cc(-c2cc(N[C@H]3CC[C@@H](N)CC3)n3ncnc(N)c23)ccc1NC(=O)OC(C)(C)C [Example 121, tert-butyl (4-(4-amino-7-(((1s,4s)-4-aminocyclohexyl)amino)pyrrolo[2,1-f][1,2,4]triazin-5-yl)-2-methoxyphenyl)carbamate] |  |
| 37% | 51% | ≤ 100 nM |  | ≤ 100 nM | COc1cc(-c2cc(N3CCC(CCN(C)C)CC3)n3ncnc(N)c23)ccc1NC(=O)OC(C)(C)C [Example 109, tert-butyl (4-(4-amino-7-(4-(2-(dimethylamino)ethyl)piperidin-1-yl)pyrrolo[2,1-f][1,2,4]triazin-5-yl)-2-methoxyphenyl)carbamate] |  |
|  | 39% | 100 to 1000 nM | 81% |  | COc1cc(-c2cc(N3CC4(CC(N(C)C)C4)C3)n3ncnc(N)c23)ccc1NC(=O)OC(C)(C)C [Example 18, tert-butyl (4-(4-amino-7-(6-(dimethylamino)-2-azaspiro[3.3]heptan-2-yl)pyrrolo[2,1-f][1,2,4]triazin-5-yl)-2-methoxyphenyl)carbamate] |  |
|  |  | ≤ 100 nM |  | ≤ 100 nM | COc1cc(-c2cc(N3CCC(C)(CN)CC3)n3ncnc(N)c23)ccc1NC(=O)OC(C)(C)C [Example 123, tert-butyl (4-(4-amino-7-(4-(aminomethyl)-4-methylpiperidin-1-yl)pyrrolo[2,1-f][1,2,4]triazin-5-yl)-2-methoxyphenyl)carbamate] |  |
|  | 80% | ≤ 100 nM | 96% | ≤ 100 nM | CNC1CCN(c2cc(-c3ccc(NC(=O)OC(C)(C)C)c(OC)c3)c3c(N)ncnn23)CC1 [Example 44, tert-butyl (4-(4-amino-7-(4-(methylamino)piperidin-1-yl)pyrrolo[2,1-f][1,2,4]triazin-5-yl)-2-methoxyphenyl)carbamate] |  |
|  | 41% | ≤ 100 nM | 78% | ≤ 100 nM | COc1cc(-c2cc(N3CCC(N)C(C)(C)C3)n3ncnc(N)c23)ccc1NC(=O)OC(C)(C)C (centres unmarked) [Example 94, tert-butyl (4-(4-amino-7-(4-amino-3,3-dimethylpiperidin-1-yl)pyrrolo[2,1-f][1,2,4]triazin-5-yl)-2-methoxyphenyl)carbamate] |  |
|  | 40% | ≤ 100 nM | 76% |  | COc1cc(-c2cc(N3CCC4(CC3)CNC4=O)n3ncnc(N)c23)ccc1NC(=O)OC(C)(C)C [Example 55, tert-butyl (4-(4-amino-7-(1-oxo-2,7-diazaspiro[3.5]nonan-7-yl)pyrrolo[2,1-f][1,2,4]triazin-5-yl)-2-methoxyphenyl)carbamate] |  |
|  | 65% | 100 to 1000 nM | 86% |  | COc1cc(-c2cc(N3CCC(N)CC3)n3ncnc(N)c23)ccc1NC(=O)OC(C)(C)C [Example 12, tert-butyl (4-(4-amino-7-(4-aminopiperidin-1-yl)pyrrolo[2,1-f][1,2,4]triazin-5-yl)-2-methoxyphenyl)carbamate] |  |
